From PubChem BioAssay AID248 (DTP/NCI, 2004)
Where “and” joins values, the source holds several entries; their conditions need not be identical. Equal entries are not always repeated. Inconclusive results and toxic doses are left out. No stated cut-off is given here; in the data, active means T/C of 150% or more; inactive means T/C below 125%.

Test system: L1210 leukemia ip in BDF1 mice, survival T/C
Assay: NCI In Vivo Anticancer Drug Screen. Data for tumor model L1210 Leukemia (intraperitoneal) in B6D2F1 (BDF1) mice
Details: endpoint: mean survival time, higher = longer survival
In short: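 Transplantable tumor model; survival measured in treated vs vehicle control mice. Value = treated/control.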

[1] = dose: 100.0 mg/kg/injection, schedule: Q01DX009 (ip), vehicle: saline
[2] = dose: 100.0 mg/kg/injection, schedule: Q04DX003 (ip), vehicle: saline
[3] = dose: 200.0 mg/kg/injection, schedule: Q04DX003 (ip), vehicle: saline
[4] = dose: 100.0 mg/kg/injection, schedule: Q04DX003 (ip), vehicle: saline with Tween-80
[5] = dose: 200.0 mg/kg/injection, schedule: Q04DX003 (ip), vehicle: saline with Tween-80
[6] = dose: 400.0 mg/kg/injection, schedule: Q04DX003 (ip), vehicle: saline with Tween-80
[7] = dose: 100.0 mg/kg/injection, schedule: Q04DX003 (ip), vehicle: Klucel (hydroxypropylcellulose) (HPC)
[8] = dose: 200.0 mg/kg/injection, schedule: Q04DX003 (ip), vehicle: Klucel (hydroxypropylcellulose) (HPC)
[9] = dose: 400.0 mg/kg/injection, schedule: Q04DX003 (ip), vehicle: Klucel (hydroxypropylcellulose) (HPC)

Measured: T/C

ClCCN(CCCl)CCn1cnc2c(SCc3ccccc3)ncnc21
inactive: dose: 13.0 mg/kg/injection, schedule: Q01DX Z (ip), vehicle: carboxymethylcellulose (CMC) 103 % of control | dose: 20.0 mg/kg/injection, schedule: Q01DX Z (ip), vehicle: carboxymethylcellulose (CMC) 108 % of control | dose: 30.0 mg/kg/injection, schedule: Q01DX Z (ip), vehicle: carboxymethylcellulose (CMC) 105 % of control | dose: 45.0 mg/kg/injection, schedule: Q01DX Z (ip), vehicle: carboxymethylcellulose (CMC) 110 % of control

CC/C=C(/C#N)CC
inactive: dose: 100.0 mg/kg/injection, schedule: Q04DX002 (ip), vehicle: saline with Tween-80 104 % of control | dose: 200.0 mg/kg/injection, schedule: Q04DX002 (ip), vehicle: saline with Tween-80 93 % of control

NC(N)=NCCCCCC(=O)O
inactive: [1] 95 % of control | [2] 103 % of control | dose: 200.0 mg/kg/injection, schedule: Q01DX009 (ip), vehicle: saline 88 % of control | [3] 100 % of control | dose: 400.0 mg/kg/injection, schedule: Q04DX003 (ip), vehicle: saline 101 % of control

CCCCCCCCNP(=S)(NCCCCCCCC)NCCCCCCCC
inactive: dose: 50.0 mg/kg/injection, schedule: Q01DX001 (ip), vehicle: other 105 % of control | dose: 100.0 mg/kg/injection, schedule: Q01DX001 (ip), vehicle: other 96 % of control | dose: 200.0 mg/kg/injection, schedule: Q01DX001 (ip), vehicle: other 96 % of control | dose: 400.0 mg/kg/injection, schedule: Q01DX001 (ip), vehicle: other 94 % of control

CC1(C)C(=O)C=C(c2ccccc2)C1(O)c1ccccc1 (configuration not stated)
inactive: [4] 99 % of control | [5] 96 % of control | [6] 96 % of control

COC(=O)C1CC2(CNc3ccccc32)CN1C (configuration not stated)
inactive: [7] 90 % of control | [8] 89 % of control | [9] 89 % of control

O=C(OC1OCC(OCc2ccccc2)C(OCc2ccccc2)C1OCc1ccccc1)c1ccccc1 (configuration not stated)
inactive: [4] 94 % of control | [5] 94 % of control | [6] 91 % of control

COc1ccc(/C=N\NC(=O)N/N=C/c2ccc(OC)c(OC)c2)cc1OC
inactive: dose: 50.0 mg/kg/injection, schedule: Q01DX001 (ip), vehicle: Klucel (hydroxypropylcellulose) (HPC) 90 % of control | dose: 100.0 mg/kg/injection, schedule: Q01DX001 (ip), vehicle: Klucel (hydroxypropylcellulose) (HPC) 95 % of control

O=S(=O)(Nc1cc(N2CCOCC2)c(O)c2ccccc12)c1ccccc1
inactive: dose: 25.0 mg/kg/injection, schedule: Q01DX001 (ip), vehicle: saline with Tween-80 95 % of control | dose: 50.0 mg/kg/injection, schedule: Q01DX001 (ip), vehicle: saline with Tween-80 97 % of control | dose: 100.0 mg/kg/injection, schedule: Q01DX001 (ip), vehicle: saline with Tween-80 94 % of control

CC1Cc2ccccc2C1=O (configuration not stated)
inactive: [4] 98 % of control | [5] 98 % of control | [6] 103 % of control

CC(=O)NCC1(c2ccccc2)CCN(CCCC(=O)c2ccc(F)cc2)CC1
inactive: dose: 1.56 mg/kg/injection, schedule: Q03HX024 (ip), vehicle: saline 94 % of control | dose: 3.12 mg/kg/injection, schedule: Q03HX024 (ip), vehicle: saline 98 % of control | dose: 4.1 mg/kg/injection, schedule: Q01DX009 (ip), vehicle: saline 96 % of control | dose: 6.25 mg/kg/injection, schedule: Q01DX009 (ip), vehicle: saline 98 % of control | dose: 8.2 mg/kg/injection, schedule: Q01DX009 (ip), vehicle: saline 96 % of control | dose: 12.5 mg/kg/injection, schedule: Q01DX009 (ip), vehicle: saline 102 % of control | dose: 12.5 mg/kg/injection, schedule: Q04DX003 (ip), vehicle: saline 100 % of control | dose: 16.5 mg/kg/injection, schedule: Q01DX009 (ip), vehicle: saline 89 % of control | dose: 18.75 mg/kg/injection, schedule: Q01DX001 (ip), vehicle: saline 100 % of control | dose: 25.0 mg/kg/injection, schedule: Q01DX009 (ip), vehicle: saline 96 % of control | dose: 25.0 mg/kg/injection, schedule: Q03HX024 (ip), vehicle: saline 86 % of control | dose: 25.0 mg/kg/injection, schedule: Q04DX003 (ip), vehicle: saline 100 % of control and 101 % of control (2×) | dose: 33.0 mg/kg/injection, schedule: Q01DX009 (ip), vehicle: saline 86 % of control | dose: 37.5 mg/kg/injection, schedule: Q01DX001 (ip), vehicle: saline 96 % of control | dose: 50.0 mg/kg/injection, schedule: Q01DX009 (ip), vehicle: saline 109 % of control | dose: 50.0 mg/kg/injection, schedule: Q04DX003 (ip), vehicle: saline 101 % of control and 108 % of control and 118 % of control | dose: 66.0 mg/kg/injection, schedule: Q01DX009 (ip), vehicle: saline 91 % of control | dose: 75.0 mg/kg/injection, schedule: Q01DX001 (ip), vehicle: saline 96 % of control | [1] 107 % of control | [2] 103 % of control | dose: 150.0 mg/kg/injection, schedule: Q01DX001 (ip), vehicle: saline 91 % of control | [3] 113 % of control

CCC(=O)N(C)C(=NC)c1ccc(NC(=O)c2ccc(C(=O)Nc3ccc(C(=NC)N(C)C(=O)CC)cc3)cc2)cc1
inactive: dose: 75.0 mg/kg/injection, schedule: Q01DX015 (ip), vehicle: carboxymethylcellulose (CMC) 90 % of control | dose: 100.0 mg/kg/injection, schedule: Q01DX015 (ip), vehicle: carboxymethylcellulose (CMC) 91 % of control | dose: 150.0 mg/kg/injection, schedule: Q01DX015 (ip), vehicle: carboxymethylcellulose (CMC) 90 % of control | dose: 200.0 mg/kg/injection, schedule: Q01DX015 (ip), vehicle: carboxymethylcellulose (CMC) 97 % of control

O=C(O)c1ccccc1-c1ccccc1C(=O)O
inactive: [4] 111 % of control | [5] 97 % of control | [6] 94 % of control

O=C(O)CCC(=O)c1ccc(C2CCCC2)c2ccccc12
inactive: dose: 100.0 mg/kg/injection, schedule: Q01DX001 (ip), vehicle: carboxymethylcellulose (CMC) 91 % of control | dose: 200.0 mg/kg/injection, schedule: Q01DX001 (ip), vehicle: carboxymethylcellulose (CMC) 93 % of control | dose: 400.0 mg/kg/injection, schedule: Q01DX001 (ip), vehicle: carboxymethylcellulose (CMC) 89 % of control

O=S(=O)(Cc1ccc(Cl)cc1)Cc1ccc(Cl)cc1
inactive: dose: 100.0 mg/kg/injection, schedule: Q01DX009 (ip), vehicle: saline sonified 93 % of control | [7] 95 % of control | dose: 200.0 mg/kg/injection, schedule: Q01DX009 (ip), vehicle: saline sonified 93 % of control | [8] 92 % of control | dose: 400.0 mg/kg/injection, schedule: Q01DX009 (ip), vehicle: saline sonified 93 % of control | [9] 103 % of control

[Cl][Rh][Cl].[NH-]c1nccs1.[NH-]c1nccs1.[NH-]c1nccs1.[NH-]c1nccs1
inactive: dose: 3.13 mg/kg/injection, schedule: Q04DX003 (ip), vehicle: distilled water + Tween-80 103 % of control | dose: 6.25 mg/kg/injection, schedule: Q04DX003 (ip), vehicle: distilled water + Tween-80 96 % of control | dose: 12.5 mg/kg/injection, schedule: Q04DX003 (ip), vehicle: distilled water + Tween-80 97 % of control | dose: 25.0 mg/kg/injection, schedule: Q04DX003 (ip), vehicle: distilled water + Tween-80 96 % of control | dose: 50.0 mg/kg/injection, schedule: Q04DX003 (ip), vehicle: distilled water + Tween-80 103 % of control | dose: 100.0 mg/kg/injection, schedule: Q04DX003 (ip), vehicle: distilled water + Tween-80 102 % of control | dose: 200.0 mg/kg/injection, schedule: Q04DX003 (ip), vehicle: distilled water + Tween-80 103 % of control
